Measured values: publication PMC8286840, “Identifying SARS-CoV-2 antiviral compounds by screening for small molecule inhibitors of Nsp3 papain-like protease” (Biochemical Journal, 2021)
Where a name gives a salt, the structure may show the parent alone. Read-outs that look alike come from different tables or passages of the source.

How the values were obtained:
[1] = target: T1, SARS-CoV-2 PLpro (nsp3 1564–1878) (Severe acute respiratory syndrome coronavirus 2, UniProt P0DTD1); assay: biochemical; set-up: FRET-quenched peptide (Pro3) cleavage by PLpro, 10 min pre-incubation, slope over 20 min, normalised to no-compound control; conditions: low concentration screen, read-out: % of control remaining
[2] = target: T1, SARS-CoV-2 PLpro (nsp3 1564–1878); assay: biochemical; set-up: FRET-quenched peptide (Pro3) cleavage by PLpro, 10 min pre-incubation, slope over 20 min, normalised to no-compound control; conditions: high concentration screen, read-out: % of control remaining

Structure (SMILES): CC(C)=CCC[C@](C)(O[C@@H]1O[C@H](CO[C@@H]2O[C@@H](CO)[C@H](O)[C@H]2O)[C@@H](O)[C@H](O)[C@H]1O)[C@H]1CC[C@]2(C)[C@@H]1[C@H](O)C[C@@H]1[C@@]3(C)CC[C@H](O[C@@H]4O[C@H](CO)[C@@H](O)[C@H](O)[C@H]4O[C@@H]4O[C@H](CO)[C@@H](O)[C@H](O)[C@H]4O)C(C)(C)[C@@H]3CC[C@]12C [Ginsenoside Rc]
- remaining activity at 1.25 µM ([1]; Well no.=6436): 93.3%
- remaining activity at 3.75 µM ([2]; Well no.=6436): 92.6%

Structure (SMILES): CC1=Nc2ccc(Cl)cc2S(=O)(=O)N1 [Diazoxide]
- remaining activity at 1.25 µM ([1]; Well no.=394): 105%
- remaining activity at 1.25 µM ([1]; Well no.=1804): 92.9%
- remaining activity at 3.75 µM ([2]; Well no.=394): 101%
- remaining activity at 3.75 µM ([2]; Well no.=1804): 93.4%

Structure (SMILES): C=CCc1cc(OC)c(O)c(C(=O)NCCO)c1 [Alibendol]
- remaining activity at 1.25 µM ([1]; Well no.=5002): 101%
- remaining activity at 3.75 µM ([2]; Well no.=5002): 94.9%

Structure (SMILES): COc1cc2c(cc1OC)CN(CCc1ccc(NC(=O)c3cc(OC)c(OC)cc3NC(=O)c3cnc4ccccc4c3)cc1)CC2 [Tariquidar]
- remaining activity at 1.25 µM ([1]; Well no.=4796): 98.7%
- remaining activity at 3.75 µM ([2]; Well no.=4796): 92.7%

Structure (SMILES): O=[N+]([O-])c1cn2c(n1)OC[C@@H](OCc1ccc(OC(F)(F)F)cc1)C2 [PA-824]
- remaining activity at 1.25 µM ([1]; Well no.=4709): 104%
- remaining activity at 3.75 µM ([2]; Well no.=4709): 104%

Structure (SMILES): C[C@@H](Nc1cc(NS(=O)(=O)N2CCC2)nc(SCc2cccc(F)c2F)n1)[C@@H](O)CO [SRT3109]
- remaining activity at 1.25 µM ([1]; Well no.=8607): 108%
- remaining activity at 3.75 µM ([2]; Well no.=8607): 104%

Structure (SMILES): C#CCOc1ccc2c(c1)c(-c1ccc(C(C)C)cc1)nc(=O)n2C(C)C [Calcium-Sensing Receptor Antagonists I]
- remaining activity at 1.25 µM ([1]; Well no.=8007): 101%
- remaining activity at 3.75 µM ([2]; Well no.=8007): 98.6%

Structure (SMILES): COC(=O)[C@H](c1ccccc1Cl)N1CCc2sccc2C1 [Clopidogrel (hydrogen sulfate)]
- remaining activity at 1.25 µM ([1]; Well no.=7563): 95.7%
- remaining activity at 1.25 µM ([1]; Well no.=7926): 95.8%
- remaining activity at 3.75 µM ([2]; Well no.=7563): 96.5%
- remaining activity at 3.75 µM ([2]; Well no.=7926): 98.2%

Structure (SMILES): O=C1/C(=C/c2ccc([N+](=O)[O-])cc2)CS(=O)(=O)C/C1=C\c1ccc([N+](=O)[O-])cc1 [Ubiquitin Isopeptidase Inhibitor I, G5]
- remaining activity at 1.25 µM ([1]; Well no.=6388): 93.2%
- remaining activity at 3.75 µM ([2]; Well no.=6388): 95.7%

Structure (SMILES): NC(=O)[C@@H]1CCCC[C@@H]1C(=O)Nc1ccc(Cl)c(Cl)c1 [Lu AF21934]
- remaining activity at 1.25 µM ([1]; Well no.=8529): 104%
- remaining activity at 3.75 µM ([2]; Well no.=8529): 104%

Structure (SMILES): CC(C)(O/N=C(\C(=O)N[C@@H]1C(=O)N2C(C(=O)[O-])=C(C[n+]3ccccc3)CS[C@H]12)c1csc(N)n1)C(=O)O [Ceftazidime]
- remaining activity at 1.25 µM ([1]; Well no.=2221): 98.3%
- remaining activity at 3.75 µM ([2]; Well no.=2221): 98%

Structure (SMILES): CN1[C@@H]2CC[C@H]1C[C@@H](OC(=O)[C@H](CO)c1ccccc1)C2 [Hyoscyamine]
- remaining activity at 1.25 µM ([1]; Well no.=3727): 94.8%
- remaining activity at 3.75 µM ([2]; Well no.=3727): 101%

Structure (SMILES): CC(F)(F)CN1CCOc2c(nn(-c3ccccc3Cl)c2-c2ccc(Cl)cc2)C1=O [PF-514273]
- remaining activity at 1.25 µM ([1]; Well no.=5700): 97.7%
- remaining activity at 3.75 µM ([2]; Well no.=5700): 96.2%

Structure (SMILES): COc1ccccc1N1CCNCC1 [1-(2-Methoxyphenyl)piperazine hydrochloride]
- remaining activity at 1.25 µM ([1]; Well no.=1181): 104%
- remaining activity at 3.75 µM ([2]; Well no.=1181): 102%

Structure (SMILES): CC(C)(C)C(O)/C(=C\c1ccc(Cl)cc1)n1cncn1 (stereo not drawn) [Uniconazole]
- remaining activity at 1.25 µM ([1]; Well no.=8248): 104%
- remaining activity at 3.75 µM ([2]; Well no.=8248): 102%

Structure (SMILES): CCCCCCCCCCCCCCCCOCC(COP(=O)([O-])OCC[N+](C)(C)C)OC (stereo not drawn) [1-Hexadecyl-2-methylglycero-3 PC]
- remaining activity at 1.25 µM ([1]; Well no.=4259): 95.4%
- remaining activity at 3.75 µM ([2]; Well no.=4259): 92%
